This note sets out measurements from patent US12310975B2, “Modulators of BCL6 proteolysis and associated methods of use” (Arvinas Operations, Inc., priority 2019, dated 2025).

For assay [1], the target named is T1, BCL6 (Homo sapiens (Human), UniProt P41182). The assay can be described thus: BCL6 TR-FRET assay (BCL6-Avitag-Biotin / BCoR-Cy5 peptide). It counts as binding. The following applies: read-out: IC50. In outline:
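After 30 min room-temperature preincubation of compound titrations with 2 nM biotinylated BCL6-Avitag, 100 nM Cy5-labelled BCoR peptide plus 2 nM Eu-streptavidin were added and TR-FRET read 2 h later. HEPES pH 7.5/125 mM NaCl buffer with Triton X, glutathione (or DTT) and BSA.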
Background: TR-FRET usually uses a lanthanide donor and a delayed reading to cut background.

Assay [2] addresses T1, BCL6. Briefly: Immunofluorescence high content imaging of BCL6 degradation in T47D cells. It counts as cell-based. The following applies: T47D. In outline: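 Seed T47D in RPMI1640-10% FBS to reach ~70-90% confluence at endpoint; add degrader next day (11-point 3-fold series, top 0.1 or 1 μM final) for 3 days. Then fix, permeabilize, stain BCL6 with nuclear Hoechst, and image.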

The structures appear in SMILES notation.

Consider `CNC(=O)COc1cc2cc(Nc3nc(N4CCC(CN5CCC6(CCN(c7cccc8c7C(=O)N(C7CCC(=O)NC7=O)C8=O)CC6)C5)CC4)ncc3Cl)ccc2n(C(C)C)c1=O` (stereo not drawn) [compound 506, 2-{[6-({5-chloro-2-[4-({8-[2-(2,6-dioxopiperidin-3-yl)-1,3-dioxo-2,3-dihydro-1H-isoindol-4-yl]-2,8-diazaspiro[4.5]decan-2-yl}methyl)piperidin-1-yl]pyrimidin-4-yl}amino)-2-oxo-1-(propan-2-yl)-1,2-dihydroquinolin-3-yl]oxy}-N-methylacetamide], for which the IC50 on BCL6 [1] is less than 0.01 µM. This molecule registered a Dmax at BCL6 [2] of 50 to 70%.
In the case of `CNC(=O)COc1cc2cc(Nc3nc(N4CCC5(CCN(CC6CCN(c7ccc8c(c7)C(=O)N(C7CCC(=O)NC7=O)C8=O)CC6)C5)CC4)ncc3Cl)ccc2n(C(C)C)c1=O` (stereo not drawn) [compound 507, 2-{[6-({5-chloro-2-[2-({1-[2-(2,6-dioxopiperidin-3-yl)-1,3-dioxo-2,3-dihydro-1H-isoindol-5-yl]piperidin-4-yl}methyl)-2,8-diazaspiro[4.5]decan-8-yl]pyrimidin-4-yl}amino)-2-oxo-1-(propan-2-yl)-1,2-dihydroquinolin-3-yl]oxy}-N-methylacetamide], the IC50 on BCL6 [1] is less than 0.01 µM. For the same molecule, at BCL6 [2], the Dmax was no less than 70%.
For `CNC(=O)COc1cc2cc(Nc3nc(N4CCC5(CCN(CC6CCN(c7cccc8c7C(=O)N(C7CCC(=O)NC7=O)C8=O)CC6)C5)CC4)ncc3Cl)ccc2n(C(C)C)c1=O` (stereo not drawn) [compound 508, 2-{[6-({5-chloro-2-[2-({1-[2-(2,6-dioxopiperidin-3-yl)-1,3-dioxo-2,3-dihydro-1H-isoindol-4-yl]piperidin-4-yl}methyl)-2,8-diazaspiro[4.5]decan-8-yl]pyrimidin-4-yl}amino)-2-oxo-1-(propan-2-yl)-1,2-dihydroquinolin-3-yl]oxy}-N-methylacetamide], in that order: less than 0.01 µM and no less than 70%.
Take `CNC(=O)COc1cc2cc(Nc3nc(N4CCC(CN5CCC6(C5)CN(c5ccc7c(c5)C(=O)N(C5CCC(=O)NC5=O)C7=O)C6)CC4)ncc3Cl)ccc2n(C(C)C)c1=O` (stereo not drawn) [compound 510, 2-{[6-({5-chloro-2-[4-({2-[2-(2,6-dioxopiperidin-3-yl)-1,3-dioxo-2,3-dihydro-1H-isoindol-5-yl]-2,6-diazaspiro[3.4]octan-6-yl}methyl)piperidin-1-yl]pyrimidin-4-yl}amino)-2-oxo-1-(propan-2-yl)-1,2-dihydroquinolin-3-yl]oxy}-N-methylacetamide]: the IC50 at BCL6 [1] was less than 0.01 µM. This molecule also came in with a Dmax on BCL6 [2] of 50 to 70%.
Taken in the same sequence, the figures for `CNC(=O)COc1cc2cc(Nc3nc(N4CC5(CCN(CC6CCN(c7cccc8c7C(=O)N(C7CCC(=O)NC7=O)C8=O)CC6)C5)C4)ncc3Cl)ccc2n(C(C)C)c1=O` (stereo not drawn) [compound 511, 2-{[6-({5-chloro-2-[6-({1-[2-(2,6-dioxopiperidin-3-yl)-1,3-dioxo-2,3-dihydro-1H-isoindol-4-yl]piperidin-4-yl}methyl)-2,6-diazaspiro[3.4]octan-2-yl]pyrimidin-4-yl}amino)-2-oxo-1-(propan-2-yl)-1,2-dihydroquinolin-3-yl]oxy}-N-methylacetamide] were less than 0.01 µM and no less than 70%.
With `CNC(=O)COc1cc2cc(Nc3nc(N4CCC(CN5CCC6(CC5)CCN(c5cccc7c5C(=O)N(C5CCC(=O)NC5=O)C7=O)C6)CC4)ncc3Cl)ccc2n(C(C)C)c1=O` (stereo not drawn) [compound 512, 2-{[6-({5-chloro-2-[4-({2-[2-(2,6-dioxopiperidin-3-yl)-1,3-dioxo-2,3-dihydro-1H-isoindol-4-yl]-2,8-diazaspiro[4.5]decan-8-yl}methyl)piperidin-1-yl]pyrimidin-4-yl}amino)-2-oxo-1-(propan-2-yl)-1,2-dihydroquinolin-3-yl]oxy}-N-methylacetamide], the IC50 on BCL6 [1] was less than 0.01 µM. The molecule also had a Dmax on BCL6 [2] of 50 to 70%.
With `CNC(=O)COc1cc2cc(Nc3nc(N4CCC5(CCN(CC6CCN(c7cccc8c7C(=O)N(C7CCC(=O)NC7=O)C8=O)CC6)CC5)C4)ncc3Cl)ccc2n(C(C)C)c1=O` (stereo not drawn) [compound 513, 2-{[6-({5-chloro-2-[8-({1-[2-(2,6-dioxopiperidin-3-yl)-1,3-dioxo-2,3-dihydro-1H-isoindol-4-yl]piperidin-4-yl}methyl)-2,8-diazaspiro[4.5]decan-2-yl]pyrimidin-4-yl}amino)-2-oxo-1-(propan-2-yl)-1,2-dihydroquinolin-3-yl]oxy}-N-methylacetamide], the IC50 on BCL6 [1] was less than 0.01 µM. The Dmax at BCL6 [2] is no less than 70%.
Taken in the same sequence, the figures for `CNC(=O)COc1cc2cc(Nc3nc(N4CCC5(CC4)CCN(C4CCN(c6ccc7c(c6)C(=O)N(C6CCC(=O)NC6=O)C7=O)CC4)C5)ncc3Cl)ccc2n(C(C)C)c1=O` (stereo not drawn) [compound 514, 2-[(6-{[5-chloro-2-(2-{1-[2-(2,6-dioxopiperidin-3-yl)-1,3-dioxo-2,3-dihydro-1H-isoindol-5-yl]piperidin-4-yl}-2,8-diazaspiro[4.5]decan-8-yl)pyrimidin-4-yl]amino}-2-oxo-1-(propan-2-yl)-1,2-dihydroquinolin-3-yl)oxy]-N-methylacetamide] were less than 0.01 µM and less than 50%.
As to `CNC(=O)COc1cc2cc(Nc3nc(N4CCC(N5CCC6(CCN(c7ccc8c(c7)C(=O)N(C7CCC(=O)NC7=O)C8=O)C6)CC5)CC4)ncc3Cl)ccc2n(C(C)C)c1=O` (stereo not drawn) [compound 515, 2-[(6-{[5-chloro-2-(4-{2-[2-(2,6-dioxopiperidin-3-yl)-1,3-dioxo-2,3-dihydro-1H-isoindol-5-yl]-2,8-diazaspiro[4.5]decan-8-yl}piperidin-1-yl)pyrimidin-4-yl]amino}-2-oxo-1-(propan-2-yl)-1,2-dihydroquinolin-3-yl)oxy]-N-methylacetamide], at BCL6 [1], the half-maximal inhibitory concentration (IC50) was in the range of 0.01 to 0.05 µM. This molecule came in with a Dmax on BCL6 [2] of no less than 70%.
Taken in the same sequence, the figures for `CNC(=O)COc1cc2cc(Nc3nc(N4CCN(CC5CC6(CCN(c7ccc8c(c7)C(=O)N(C7CCC(=O)NC7=O)C8=O)CC6)C5)CC4)ncc3Cl)ccc2n(C(C)C)c1=O` (stereo not drawn) [compound 516, 2-{[6-({5-chloro-2-[4-({7-[2-(2,6-dioxopiperidin-3-yl)-1,3-dioxo-2,3-dihydro-1H-isoindol-5-yl]-7-azaspiro[3.5]nonan-2-yl}methyl)piperazin-1-yl]pyrimidin-4-yl}amino)-2-oxo-1-(propan-2-yl)-1,2-dihydroquinolin-3-yl]oxy}-N-methylacetamide] were less than 0.01 µM and 50 to 70%.
For `CNC(=O)COc1cc2cc(Nc3nc(N4CCN(CC5CC6(CCN(c7cccc8c7C(=O)N(C7CCC(=O)NC7=O)C8=O)CC6)C5)CC4)ncc3Cl)ccc2n(C(C)C)c1=O` (stereo not drawn) [compound 517, 2-{[6-({5-chloro-2-[4-({7-[2-(2,6-dioxopiperidin-3-yl)-1,3-dioxo-2,3-dihydro-1H-isoindol-4-yl]-7-azaspiro[3.5]nonan-2-yl}methyl)piperazin-1-yl]pyrimidin-4-yl}amino)-2-oxo-1-(propan-2-yl)-1,2-dihydroquinolin-3-yl]oxy}-N-methylacetamide], the IC50 on BCL6 [1] is less than 0.01 µM. The molecule further returned a Dmax at BCL6 [2] of no less than 70%.
`CNC(=O)COc1cc2cc(Nc3nc(N4CCC(O[C@H]5C[C@H](N6CCN(c7cccc8c7C(=O)N(C7CCC(=O)NC7=O)C8=O)CC6)C5)CC4)ncc3Cl)ccc2n(C(C)C)c1=O` (stereo partly drawn) [compound 518, 2-({6-[(5-chloro-2-{4-[(1r,3r)-3-{4-[2-(2,6-dioxopiperidin-3-yl)-1,3-dioxo-2,3-dihydro-1H-isoindol-4-yl]piperazin-1-yl}cyclobutoxy]piperidin-1-yl}pyrimidin-4-yl)amino]-2-oxo-1-(propan-2-yl)-1,2-dihydroquinolin-3-yl}oxy)-N-methylacetamide]: at BCL6 [1], the IC50 lay within 0.01 to 0.05 µM. For the same molecule, the Dmax on BCL6 [2] is no less than 70%.
`CNC(=O)COc1cc2cc(Nc3nc(N4CCC5(CN(CC6CCN(c7cccc8c7C(=O)N(C7CCC(=O)NC7=O)C8=O)CC6)C5)C4)ncc3Cl)ccc2n(C(C)C)c1=O` (stereo not drawn) [compound 519, 2-{[6-({5-chloro-2-[2-({1-[2-(2,6-dioxopiperidin-3-yl)-1,3-dioxo-2,3-dihydro-1H-isoindol-4-yl]piperidin-4-yl}methyl)-2,6-diazaspiro[3.4]octan-6-yl]pyrimidin-4-yl}amino)-2-oxo-1-(propan-2-yl)-1,2-dihydroquinolin-3-yl]oxy}-N-methylacetamide]: the IC50 on BCL6 [1] was less than 0.01 µM. At BCL6 [2], this molecule registered a Dmax of no less than 70%.
For `CNC(=O)COc1cc2cc(Nc3nc(N4CCC5(CC4)CCN(C4CCN(c6cccc7c6C(=O)N(C6CCC(=O)NC6=O)C7=O)CC4)C5)ncc3Cl)ccc2n(C(C)C)c1=O` (stereo not drawn) [compound 520, 2-[(6-{[5-chloro-2-(2-{1-[2-(2,6-dioxopiperidin-3-yl)-1,3-dioxo-2,3-dihydro-1H-isoindol-4-yl]piperidin-4-yl}-2,8-diazaspiro[4.5]decan-8-yl)pyrimidin-4-yl]amino}-2-oxo-1-(propan-2-yl)-1,2-dihydroquinolin-3-yl)oxy]-N-methylacetamide], in that order: less than 0.01 µM and less than 50%.
Taken in the same sequence, the figures for `CNC(=O)COc1cc2cc(Nc3nc(N4CCC(N5CCC6(CCN(c7ccc8c(c7)C(=O)N(C7CCC(=O)NC7=O)C8=O)CC6)C5)CC4)ncc3Cl)ccc2n(C(C)C)c1=O` (stereo not drawn) [compound 521, 2-[(6-{[5-chloro-2-(4-{8-[2-(2,6-dioxopiperidin-3-yl)-1,3-dioxo-2,3-dihydro-1H-isoindol-5-yl]-2,8-diazaspiro[4.5]decan-2-yl}piperidin-1-yl)pyrimidin-4-yl]amino}-2-oxo-1-(propan-2-yl)-1,2-dihydroquinolin-3-yl)oxy]-N-methylacetamide] were less than 0.01 µM and 50 to 70%.

A word on the IC50: it is the concentration that gives 50% inhibition. For orientation: Dmax means the greatest extent of degradation seen. Low values mean shallow degradation, high ones deep degradation.
